{"source": "ChEMBL document CHEMBL1143395", "about": "“Cloning, expression, post-translational modifications and inhibition studies on the latest mammalian carbonic anhydrase isoform, CA XV” (J Med Chem, 2009)"}
{"molecular_target": "Carbonic anhydrase 6 (Homo sapiens, UniProt P23280)", "sequence (P23280 whole entry)": "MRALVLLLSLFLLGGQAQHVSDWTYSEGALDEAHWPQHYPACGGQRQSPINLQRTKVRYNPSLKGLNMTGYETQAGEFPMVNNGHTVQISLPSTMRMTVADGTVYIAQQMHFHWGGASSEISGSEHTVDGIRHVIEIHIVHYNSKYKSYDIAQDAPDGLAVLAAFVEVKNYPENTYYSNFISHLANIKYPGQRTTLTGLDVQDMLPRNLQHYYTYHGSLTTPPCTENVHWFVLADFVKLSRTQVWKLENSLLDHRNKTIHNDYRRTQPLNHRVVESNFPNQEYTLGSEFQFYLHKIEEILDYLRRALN", "units": {"Ki": "nM"}}
{"molecule": "Cc1ccc(-c2cc(C(F)(F)F)nn2-c2ccc(S(N)(=O)=O)cc2)cc1", "note": "[CELECOXIB]", "Ki": 94}
{"molecular_target": "T1, Carbonic anhydrase 15 (Mus musculus, UniProt Q99N23)", "T1 sequence (Q99N23 whole entry)": "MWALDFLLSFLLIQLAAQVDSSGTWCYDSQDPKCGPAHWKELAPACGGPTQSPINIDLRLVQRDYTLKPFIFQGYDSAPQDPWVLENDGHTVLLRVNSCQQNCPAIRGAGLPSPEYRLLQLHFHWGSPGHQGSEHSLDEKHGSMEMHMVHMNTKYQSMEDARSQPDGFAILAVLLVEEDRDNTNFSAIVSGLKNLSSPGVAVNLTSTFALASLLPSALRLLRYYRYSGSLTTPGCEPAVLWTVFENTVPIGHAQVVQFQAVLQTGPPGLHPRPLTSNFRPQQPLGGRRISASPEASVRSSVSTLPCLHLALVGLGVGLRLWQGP", "units": {"Ki": "nM"}}
{"molecule": "NNc1ccccc1S(N)(=O)=O", "Ki": 6900}
{"molecule": "Nc1nnc(S(N)(=O)=O)s1", "Ki": 48}
{"molecule": "Nc1ccc(S(=O)(=O)NCc2ccc(S(N)(=O)=O)cc2)cc1", "Ki": 49}
{"molecule": "Nc1cc(Cl)c(S(N)(=O)=O)cc1S(N)(=O)=O", "Ki": 757}
{"molecule": "NS(=O)(=O)c1nnc(-c2ccccc2Cl)s1", "Ki": 60}
{"molecule": "Nc1nccc(Nc2ccc(S(N)(=O)=O)cc2)n1", "Ki": 67}
{"molecule": "NS(=O)(=O)c1nc2ccc(O)cc2s1", "Ki": 64}
{"molecule": "Nc1ccccc1S(N)(=O)=O", "Ki": 8810}
{"molecule": "Nc1ccc(S(N)(=O)=O)cc1Br", "Ki": 83}
{"molecule": "Cn1nc(S(N)(=O)=O)sc1=N", "Ki": 49}
{"molecule": "NS(=O)(=O)c1ccc(CCO)cc1", "Ki": 4660}
{"molecule": "Nc1ccc(S(N)(=O)=O)cc1F", "Ki": 79}
{"molecule": "NS(=O)(=O)c1ccc(CO)cc1", "Ki": 4560}
{"molecule": "Nc1ccc(S(N)(=O)=O)cc1Cl", "Ki": 62}
{"molecule": "Nc1ccc(S(=O)(=O)NCCc2ccc(S(N)(=O)=O)cc2)cc1", "Ki": 63}
{"molecule": "NNc1ccc(S(N)(=O)=O)cc1", "Ki": 9540}
{"molecule": "NS(=O)(=O)c1ccc(S(=O)(=O)Nc2cccc3c(Cl)c[nH]c23)cc1", "Ki": 72}
{"molecule": "NS(=O)(=O)c1nnc(NS(=O)(=O)c2ccccc2)s1", "note": "[BENZOLAMIDE]", "Ki": 70}
{"molecule": "CCN[C@H]1CN(CCCOC)S(=O)(=O)c2sc(S(N)(=O)=O)cc21", "note": "[BRINZOLAMIDE]", "Ki": 61}
{"molecule": "NS(=O)(=O)c1ccc(C(=O)O)cc1", "note": "[CARZENIDE]", "Ki": 4650}
{"molecule": "NS(=O)(=O)c1cc(Cl)c(Cl)c(S(N)(=O)=O)c1", "note": "[DICHLORPHENAMIDE]", "Ki": 95}
{"molecule": "CCOc1ccc2nc(S(N)(=O)=O)sc2c1", "note": "[ETHOXZOLAMIDE]", "Ki": 58}
{"molecule": "NCc1ccc(S(N)(=O)=O)cc1", "note": "[MAFENIDE]", "Ki": 970}
{"molecule": "CC(=O)/N=c1/sc(S(N)(=O)=O)nn1C", "note": "[METHAZOLAMIDE]", "Ki": 65}
{"molecule": "Cc1ccc(S(N)(=O)=O)cc1", "note": "[P-TOLUENESULFONAMIDE]", "Ki": 7990}
{"molecule": "Nc1ccc(S(N)(=O)=O)cc1", "note": "[SULFANILAMIDE]", "Ki": 9610}
{"molecule": "CC1(C)O[C@@H]2[C@@H](CO[C@@]3(COS(N)(=O)=O)OC(C)(C)O[C@@H]23)O1", "note": "[TOPIRAMATE]", "Ki": 78}
{"molecule": "NS(=O)(=O)Cc1noc2ccccc12", "note": "[ZONISAMIDE]", "Ki": 634}
